Source: US12310967B2, “Compositions and methods of treatment for neurological disorders comprising motor neuron diseases” (Gliapharm SA, priority 2017, dated 2025)

Columns and labels:
primary astrocytes [1] = assay: Intracellular glycogen quantification; type: cell-based, mouse; conditions: CDC54K hits, 10 μM, 3 h
Experimental: For glycogen dosage, a protein dosage was first performed in order to assess whether harvested astrocytes from primary cell cultures yielded enough and equivalent amounts of proteins comparing each replicate, and to ensure that the obtained differences in glycogen quantities were due to drug action and not to inner protein quantities.
Astrocytes used for these dosages were previously grown in 6-well plates for 17 days and stimulated with Vehicle (DMSO) or drug of interest (1 μM to 100 μM) for 180 min, at 37° C. 5% CO2/95% air in D5030 complete medium. Medium was removed and replaced with 600 μl of 30 mM Tris HCl, and stored at −20° C.
Proteins were dosed using the micro BCA Protein Assay kit (Thermo Scientific), as described in the manufacturer's instructions. Briefly, thawed cells were sonicated and 5 μl aliquots were placed in a transparent 96-well plate, to which we added 25 μl 30 mM Tris HCl, 70 μl H2O and 100 μl of a BCA mix (made as described in manufacturer's guidelines). After a 120 min-incubation at 37° C., absorbance was measured with Safire 2 spectrophotometer at a wavelength of 562 nm, and protein quantities were determined from a standard curve of Bovine Serum Albumin (BSA).
Glycogen was quantified using a 250 μl-aliquot of the same stimulated, thawed, and sonicated cells. After an incubation period of 30 min at 90° C. and 400 rpm, 28 μl of an acetic acid/sodium acetate (both from Sigma) 0.1M pH 4.6 buffer was added to each aliquot, which was then separated in two. Each split aliquot received whether 5 μl of amyloglucosidase (Roche) or 5 μl H2O, and all cell solutions were incubated for 120 min in a shaking 37° C.-waterbath. After a centrifugation at 16'000G for 5 min, 20 μl of supernatant were placed 96-well plate, to which 150 μl of a mix containing 0.67 mM ATP (Roche), 0.67 mM NADP (Roche), 1.8% hexokinase/glucose-6-phosphate dehydrogenase (Roche) and 0.1M Tris Buffer-HCl/3.3 mM magnesium (Fluka)/pH 8.1 buffer was added. Fluorescence was measured with Safire 2 spectrophotometer (340 nm excitation/440 nm emission). Glycogen concentration was obtained by substracting glucose value of samples with amyloglucosidase to samples without amyloglucosidase, and were expressed relative to the amount of proteins previously determined.
Levels of intracellular glycogen in astrocytes were measured at 3 h after stimulation with 20 Hits from the Prestwick library (10 μM each), as shown in FIG. 2. n=6-10; Ctrl pos. is glutamate (0.5 mM). Statistical analysis consisted in ANOVA followed by Fisher LSD post-hoc test for pair-wise comparisons.
Statistical analysis consisted in ANOVA followed by Fisher LSD post-hoc test for pair-wise comparisons.

primary astrocytes [2] = assay: MTT viability assay; type: cell-based; conditions: Mus musculus, Astrocyte; CDC54K hits, 0-200 uM, 24 h
Experimental: For cell toxicity determination, astrocytes in 96-well plates were stimulated 24 h (37° C. 5% CO2/95% air) with a gradient ranging from 0.1 to 200 μM of tested compounds. After stimulation, 5 mg/ml thiazol blue tetrazolium bromide (MTT, Sigma-Aldrich) in warm D5030 complete medium was added to each well, and cells were incubated for 4 h at 37° C. (5% CO2). The medium was then removed by aspiration, and the reaction was stopped by the addition of 50 μl DMSO per well.
The amount of reduced MTT (formazan) solubilized in DMSO was then determined spectrophotometrically using absorbance at 570 nm (Safire 2; Tecan).
MTT cellular viability assay was performed on astrocytes exposed to Preswtick Hits (concentrations ranging from 0 uM to 200 uM).
MTT cellular viability assay was performed on astrocytes exposed to CDC54K Hits (concentrations ranging from 0 uM to 200 uM).

primary astrocytes [3] = assay: Mitochondrial activity: production of H2O2 (Amplex red); type: cell-based; conditions: Mus musculus, Astrocyte, 1.5 h; CDC54K hits, 0-200 uM, 90 min
Experimental: Hydrogene peroxide (H2O2) released in the supernatant is detected enzymatically with Amplex red (Zhou, Diwu et al. 1997). Oxidation of Amplex red is catalysed by the horseradish peroxidase in presence of H2O2 into highly fluorescent resorufin. Fluorescence measure is read at 545 nm extinction, 590 nm emission. The amount of H2O2 was expressed relatively to the proteins content extracted from the cells in culture.
Mitochondrial respiration in astrocytes was measured through production of H2O2 at 90 min after stimulation with Prestwick Hits (10 uM each). […] CCCP (2 uM) was used as positive control.
Mitochondrial respiration in astrocytes was measured through production of H2O2 at 90 min after stimulation with CDC54K Hits (ranging from 0 to 200 uM).

primary astrocytes [4] = assay: Intracellular glycogen quantification, Example 2; type: cell-based, mouse; conditions: 10 μM, 3 h
Experimental: Astrocytes grown on 12-well plates were used for intracellular glycogen quantifications. Cells were stimulated with Vehicle (DMSO), with compounds of the invention (10 μM), or with a positive control for 180 min, at 37° C. 5% CO2/95% air in D5030 medium complemented with
5 mM D-glucose and 44 mM sodium bicarbonate (pH 7.2). […] At the end of the stimulation, medium was removed and replaced with 600 μl of 30 mM Tris HCl, and stored at −20° C.
First, the amount of proteins in each sample was quantified to assess whether harvested astrocytes from primary cell cultures yielded enough and equivalent amounts of proteins on each replicates. Proteins were quantified using the micro BCA Protein Assay kit (Thermo Scientific), according to manufacturer's instructions. Next, intracellular glycogen concentrations were quantified using a 250 μl-aliquot of the same stimulated, thawed, and sonicated cell lysate. After an incubation period of 30 min at 90° C. and 400 rpm, 28 μl of a 0.1M acetic acid/sodium acetate buffer (pH 4.6) was added to each lysate aliquots, which were then separated in two. Each split aliquots received either 5 μl of amyloglucosidase or H2O, and incubated for 120 min at 37° C. After centrifugation at 16'000G for 5 min, 20 μl of supernatant were placed in a 96-well plate, to which 150 μl of a mix containing 0.67 mM ATP, 0.67 mM NADP, 1.8% hexokinase/glucose-6-phosphate dehydrogenase in a 0.1M Tris Buffer-HCl/3.3 mM magnesium (pH 8.1) buffer was added. Fluorescence intensity (340 nm excitation/440 nm emission) was measured using a Safire 2 spectrophotometer. Glucose concentrations were assessed relative to a glucose standard curve, and glycogen concentrations were calculated by subtracting glucose values of samples that had received amyloglucosidase (i.e. that had degraded their glycogen stores) to samples that had not. Intracellular levels of glycogen, which is the main source of glucose storage in the brain, were analyzed in primary astrocytes after treatment with compounds of interest (10 μM, 3 h) (FIG. 5B), and compound GP-0157 (0.1, 1, 10 μM, 3 h) (FIG. 20).

| IC50 (primary astrocytes [3]) | Compound | Glycogen (statistical significance of glycogen degradation) (primary astrocytes [1]) | IC50 (primary astrocytes [2]) | mobilization of intracellular glycogen (primary astrocytes [4]) |
| --- | --- | --- | --- | --- |
| 158 µM | CCc1ccc(S(=O)(=O)Nc2ccc3[nH]ncc3c2)cc1 [T5599014] | ns | > 200 µM |  |
| > 200 µM | CCc1ccc(S(=O)(=O)N2CCSC2c2ccc(OC)c(OC)c2)cc1 (stereo not drawn) [T5463586] | *** (*** p<0.001) | > 200 µM |  |
| > 200 µM | Cc1nc2ccc(NS(=O)(=O)c3cccc(F)c3)cc2s1 [T6937001] | ns | > 200 µM | significantly enhance |
| > 200 µM | COc1cc(C)c(Cl)cc1S(=O)(=O)NCc1ccncc1 [T5580243] | ns | > 200 µM |  |
| > 200 µM | O=C1CCCN1c1ccc(S(=O)(=O)Nc2cccc(/C=C/c3ccccn3)c2)cc1 [T5644989] | ** (** p<0.01) | > 200 µM | significantly enhance |

The remaining lines, values behind:

| Compound | IC50 (primary astrocytes [3]) | Glycogen (statistical significance of glycogen degradation) (primary astrocytes [1]) | IC50 (primary astrocytes [2]) | mobilization of intracellular glycogen (primary astrocytes [4]) |
| --- | --- | --- | --- | --- |
| CCn1nccc1-c1csc(S(=O)(=O)Nc2ccc(Cl)cc2F)c1 [L924-1031] | 48.6 µM | ** (** p<0.01) | > 200 µM | significantly enhance |
| Cc1ccccc1NC(=O)C1CCCN(c2ncnc3oc(C)c(C)c23)C1 (stereo not drawn) [F228-0422] | > 200 µM | ** (** p<0.01) | > 200 µM | significantly enhance |
| N#Cc1ccc(C(=O)N2CCC(Nc3ncnc4c3CCC4)C2)cc1 (stereo not drawn) [T636-2387] | > 200 µM | ns | > 200 µM | significantly enhance |
| CCc1nc(-c2csc(S(=O)(=O)NCc3ccc4c(c3)OCO4)c2)no1 [L287-0468] | > 200 µM | ** (** p<0.01) | > 200 µM | significantly enhance |
| c1ccc2c(c1)CCN(c1ncnc3sccc13)C2 [T0517-8250] |  | ns |  | significantly enhance |
| CSc1cccc(NS(=O)(=O)c2ccc3onc(C(=O)N4CCCC4)c3c2)c1 [L995-0125] | 173 µM | ns | > 200 µM |  |
| CC(=O)N1CCc2sc(S(=O)(=O)N3CCN(c4ccccc4C)CC3)cc2C1 [P025-0159] | > 200 µM | ns | > 200 µM | significantly enhance |
